Data reported in patent publication US11076595B2, “1-(n,n-disubstituted carbamoyl) 4-(substituted sulfonyl)triazolin-5-one derivative, 4-(n,n-disubstituted carbamoyl) 1-(substituted sulfonyl)triazolin-5-one derivative, and herbicide containing said derivative as active ingredient” (HOKKO CHEMICAL INDUSTRY CO., LTD., priority 2017, dated 2021).

How the values were obtained:
Type in all cases: in vivo
[1] = system: Echinochloa crus-galli; assay: Test Example 3: herbicidal effect test by soil treatment in upland field; conditions: upland field soil treatment 1 day after sowing; 120 g/10a; evaluated 14 days after treatment
Method: (§1) This test was performed with two replications per one formulation concentration plot, and 14 days after the formulation treatments, the weed suppression rate (%) was determined according to the following equation (Math. 1). Weed suppression rate (%)=(1−an average dry weight (g) of plants in treated plots/an average dry weight (g) of plants in untreated plots)×100 [Math. 1]
(§2) A pot having a size of 36 cm^2 was filled with field soil (alluvial soil) and after uniformly mixing the soil of the surface layer of 1 cm with 20 grains of each weed seed of crabgrass, Echinochloa crus-galli, Chenopodium album and Amaranthus viridis, the surface layer was pressed lightly. One day after the sowing, an emulsifiable concentrate prepared according to Formulation Example 5 by using the compound shown in Table 7 below was diluted with water, and the water-diluted formulation was sprayed on the soil surface at a ratio of 100 liter per 10 are. The application rate of the active ingredient, by conversion, corresponded to 120 g per 10 are. Fourteen days after the formulation treatment, the herbicidal effect was evaluated by the same criteria as in Test Example 1.

[2] = system: Amaranthus viridis; assay: as above; conditions: upland field soil treatment 1 day after sowing; 120 g/10a; evaluated 14 days after treatment
Method: as §1, §2

[3] = system: Chenopodium album; assay: as above; conditions: upland field soil treatment 1 day after sowing; 120 g/10a; evaluated 14 days after treatment
Method: as §1, §2

[4] = system: crabgrass; assay: as above; conditions: upland field soil treatment 1 day after sowing; 120 g/10a; evaluated 14 days after treatment
Method: as §1, §2

[5] = system: Echinochloa crus-galli; assay: Test Example 2: herbicidal effect test by treatment during growing period in paddy field; conditions: treatment 7 days after sowing, 120 g/10a, evaluated 14 days after treatment
Procedure, shortened: (§3)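 Paddy soil in flooded pots (~3 cm water), 30 seeds per species sown 0–1 cm deep, greenhouse. Emulsifiable concentrate diluted in water and dripped into the water 7 days after sowing at 120 g a.i. per 10 are. Suppression (%) from dry weight vs untreated, 14 days post-treatment, two replicates.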

[6] = system: Monochoria vaginalis; assay: as above; conditions: treatment 7 days after sowing, 120 g/10a, evaluated 14 days after treatment
Procedure, shortened: as §3

[7] = system: Lindernia pyxidaria; assay: as above; conditions: treatment 7 days after sowing, 120 g/10a, evaluated 14 days after treatment
Procedure, shortened: as §3

[8] = system: Scirpus juncoides; assay: as above; conditions: treatment 7 days after sowing, 120 g/10a, evaluated 14 days after treatment
Procedure, shortened: as §3

[9] = system: Echinochloa crus-galli; assay: Test Example 1: herbicidal effect test by soil treatment in paddy field; conditions: 120 g/10a, paddy soil treatment just after sowing, 14 days after treatment
Procedure, shortened: (§4)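 Flooded paddy-soil pots (1/10000 are, N:P:K 17:17:17 fertilizer, puddled) were sown with 30 seeds per species at 0–1 cm, water kept ~3 cm in a greenhouse. Emulsifiable concentrate diluted in water was dripped in right after sowing at 120 g a.i. per 10 are. Suppression (%) came from dry weight vs untreated at 14 days.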

[10] = system: Monochoria vaginalis; assay: as above; conditions: 120 g/10a, paddy soil treatment just after sowing, 14 days after treatment
Procedure, shortened: as §4

[11] = system: Lindernia pyxidaria; assay: as above; conditions: 120 g/10a, paddy soil treatment just after sowing, 14 days after treatment
Procedure, shortened: as §4

[12] = system: Scirpus juncoides; assay: as above; conditions: 120 g/10a, paddy soil treatment just after sowing, 14 days after treatment
Procedure, shortened: as §4

[13] = system: Echinochloa crus-galli; assay: Test Example 4: herbicidal effect test by foliage treatment in upland field; conditions: upland field foliage treatment 7 days after sowing; 120 g/10a; evaluated 14 days after treatment
Method: as §1
as §2, with “Seven days” for “One day”, “8” for “7”

[14] = system: Amaranthus viridis; assay: as above; conditions: upland field foliage treatment 7 days after sowing; 120 g/10a; evaluated 14 days after treatment
Method: as §1
as §2, with “Seven days” for “One day”, “8” for “7”

[15] = system: Chenopodium album; assay: as above; conditions: upland field foliage treatment 7 days after sowing; 120 g/10a; evaluated 14 days after treatment
Method: as §1
as §2, with “Seven days” for “One day”, “8” for “7”

[16] = system: crabgrass; assay: as above; conditions: upland field foliage treatment 7 days after sowing; 120 g/10a; evaluated 14 days after treatment
Method: as §1
as §2, with “Seven days” for “One day”, “8” for “7”

SMILES	herbicidal effect (weed suppression rate), Echinochloa crus-galli [1]	herbicidal effect (weed suppression rate), Amaranthus viridis [2]	herbicidal effect (weed suppression rate), Chenopodium album [3]	herbicidal effect (weed suppression rate), Crabgrass [4]	weed suppression rate, Echinochloa crus-galli [5]	weed suppression rate, Monochoria vaginalis [6]	weed suppression rate, Lindemia pyxidaria [7]	weed suppression rate, Scirpus juncoides [8]	weed suppression rate, Echinochloa crus-galli [9]	weed suppression rate, Monochoria vaginalis [10]	weed suppression rate, Lindemia pyxidaria [11]	weed suppression rate, Scirpus juncoides [12]	herbicidal effect (weed suppression rate), Echinochloa crus-galli [13]	herbicidal effect (weed suppression rate), Amaranthus viridis [14]	herbicidal effect (weed suppression rate), Chenopodium album [15]	herbicidal effect (weed suppression rate), Crabgrass [16]
CC(C)N(C(=O)n1ncn(S(=O)(=O)C(C)C)c1=O)c1ccc(F)cc1F [Compound 1-65]	100%	80%	90%	100%	100%	90%	90%	90%	100%	100%	100%	100%	80%	90%	80%	90%
Cc1ccc(N(C(=O)n2ncn(S(=O)(=O)C(C)C)c2=O)C(C)C)c(F)c1 [Compound 1-79]	80%	90%	80%	90%	90%	80%	80%	90%	90%	80%	80%	90%	80%	90%	80%	90%
CC(C)N(C(=O)n1ncn(S(=O)(=O)C(C)C)c1=O)c1cccnc1F [Compound 1-90]	100%	90%	90%	100%	100%	90%	90%	90%	100%	80%	90%	90%	90%	50%	70%	90%
CC(C)N(C(=O)n1ncn(S(=O)(=O)C(C)C)c1=O)c1ccc(Cl)cn1 [Compound 1-93]	90%	80%	40%	90%	100%	90%	100%	90%	90%	80%	100%	90%	90%	0%	0%	90%
CC(C)N(C(=O)n1ncn(S(=O)(=O)C(C)C)c1=O)c1ccc(Cl)nc1Cl [Compound 1-98]	80%	90%	80%	90%	100%	90%	80%	90%	100%	90%	90%	90%	80%	90%	80%	90%
CCC(C)S(=O)(=O)n1cnn(C(=O)N(c2ccc(F)cc2F)C(C)C)c1=O (stereo not drawn) [Compound 1-101]	80%	90%	80%	90%	90%	80%	80%	90%	90%	80%	80%	90%	80%	90%	80%	90%
C=CS(=O)(=O)n1cnn(C(=O)N(c2ccc(F)cc2F)C(C)C)c1=O [Compound 1-142]	100%	100%	100%	100%	90%	80%	80%	90%	100%	100%	100%	100%	80%	90%	80%	90%
CC(C)CN(C)S(=O)(=O)n1cnn(C(=O)N(c2ccc(F)cc2F)C(C)C)c1=O [Compound 1-1142]	80%	90%	80%	90%	90%	80%	80%	90%	100%	80%	80%	80%				
CC(C)N(C(=O)n1ncn(S(=O)(=O)N2CCCCC2)c1=O)c1ccc(F)cc1F [Compound 1-1143]	80%	90%	80%	90%	90%	80%	80%	90%	90%	80%	80%	90%				
CC(C)N(C(=O)n1ncn(S(=O)(=O)C2CCOCC2)c1=O)c1ccc(F)cc1F [Compound 1-1150]	100%	100%	100%	100%									80%	90%	80%	90%
